Data on five molecules can be found in US5684039A, “Chroman-2-ylmethylamino derivatives” (American Home Products Corporation, priority 1996, dated 1997).

One test deals with α1. Put plainly: α1 (no method described). It counts as binding.
Test [1] addresses T1, dopamine D2 receptor (Rattus norvegicus, UniProt P61169). Put plainly: Ratio Ant/Ag (intrinsic activity from low-affinity/high-affinity agonist state). In kind it is binding. The settings on record: Spiper. IC50 / Quin. IC50. From the text:
Efforts to induce antipsychotic activity with dopamine autoreceptor agonists have been successful (Corsini et al. Adv. Biochem. […] […] et at. […] A method for determining intrinsic activity at the dopamine D2 receptor was recently reported [Lahti et al., Mol. Pharm. […] Intrinsic activity is predicted using the ratio of the "low-affinity agonist" (LowAg) state of the receptor and the "high-affinity agonist" ([…]) state of the receptor, […]. These ratios correlate with the agonist, partial agonist, and antagonist activities of a given compound, which activities characterize a compounds ability to elicit an antipsychotic effect.

The target of test [2] is T1, dopamine D2 receptor. Put plainly: 3H-spiroperidol (Spiper.) binding, affinity for the dopamine D-2 receptor, homogenized limbic brain tissue. More on the design: homogenized limbic brain tissue; from tissue; host or cells: limbic brain tissue, homogenized.
The next test addresses T2, dopamine autoreceptor (Rattus norvegicus, UniProt P61169).
T2 construct: homogenized rat striatal brain tissue; from tissue; host or cells: rat striatal brain tissue, homogenized
Put plainly: 3H-quinpirole (Quin.) binding, affinity for the dopamine autoreceptor, homogenized rat striatal brain tissue.

T1 sequence (P61169 whole entry): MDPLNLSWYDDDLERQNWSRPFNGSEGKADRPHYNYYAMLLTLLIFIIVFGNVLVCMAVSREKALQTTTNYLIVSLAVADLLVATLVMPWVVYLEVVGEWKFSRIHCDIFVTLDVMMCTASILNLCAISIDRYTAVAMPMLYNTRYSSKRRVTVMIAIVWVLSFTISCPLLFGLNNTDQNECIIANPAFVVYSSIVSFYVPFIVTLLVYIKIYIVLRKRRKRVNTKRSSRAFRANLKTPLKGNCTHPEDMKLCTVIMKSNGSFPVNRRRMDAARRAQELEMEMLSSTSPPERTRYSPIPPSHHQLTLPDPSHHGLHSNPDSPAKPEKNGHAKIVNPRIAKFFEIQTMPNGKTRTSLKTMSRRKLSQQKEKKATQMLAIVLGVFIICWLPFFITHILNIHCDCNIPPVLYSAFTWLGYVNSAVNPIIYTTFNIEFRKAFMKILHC
T2 sequence (P61169 whole entry): as above

Turning to `CCCNCC1CCc2ccc(O)cc2O1` (centres unmarked), 1160 nM corresponded to half-maximal inhibition in the test on α1 (IC50).

As to `CCCCNCC1CCc2ccc(OC)cc2O1` (centres unmarked), the “Ratio Ant/Ag” value on dopamine D2 receptor [1] was 32. Moreover, the figures for the IC50 on dopamine D2 receptor [2] and on dopamine autoreceptor were 23600 nM and 733 nM, respectively.

In the case of `CCCN(CCC)CC1CCc2ccc(O)cc2O1` (centres unmarked), the “Ratio Ant/Ag” value at dopamine D2 receptor [1] worked out at 88. The IC50 (in general, the concentration needed to halve the response being measured) turned out to be 8960 nM on dopamine D2 receptor [2] and 102 nM at dopamine autoreceptor.

The molecule `CCCCCCNCC1CCc2ccc(O)cc2O1` (centres unmarked) came in with an IC50 with α1 of 221 nM.

Regarding `COc1ccc2c(c1)OC(CNCCC(C)C)CC2` (centres unmarked), the “Ratio Ant/Ag” value at dopamine D2 receptor [1] was determined as 32. Also, the IC50 at dopamine D2 receptor [2] is 26500 nM; at dopamine autoreceptor, 831 nM.
